For one series, the system named is GUS expression. The series is described as follows: MS2 translation repression system in transgenic Arabidopsis (F1 segregants of crosses). It is filed as in vivo. The settings on record: Arabidopsis plants containing the MS2 coat protein.
For series [1], the system named is aroA:CP4 EPSPS reporter gene expression. The series is described as follows: MS2 CP translational repression of CP4 EPSPS reporter, corn protoplast transient assay (ELISA). It is filed as cell-based. The settings on record: corn protoplasts. The method, then:
Corn protoplasts are prepared from etiolated leaves of antiseptically grown seedlings. Six to eight grams of leaf tissue is harvested and put in the enzyme mix (1% cellulase, 0.1% macerozyme, 0.6 M mannitol, 10 mM MES (pH =5.7), 1 mM CaCl2, 1 mM MgCl2, and 0. 1% BSA) in 100×25 mm petri plates. The leaf digestion is done for 135 minutes, swirling on a shaker at 50 rpm at 26° C. under light (10-25 mico-einsteins) in a growth chamber (Percival Scientific Inc., Boone, Iowa). Protoplasts are screened through a 190 μm sterile tissue mesh into a petri plate. The protoplasts are spun down in a table top centrifuge at 800 rpm (˜200 g) for 8 minutes. The supernatant is removed carefully by pipetting. The protoplasts are resuspended in 10 mL per tube of the 0.6 M mannitol rinse. They are spun down a second time using the same conditions and re-suspended in 10 mL of the electroporation buffer (0.6 M mannitol, 4 mM MES, 1.0 mM β-mercaptoethanol, 25 mM KCL, pH =5.7) and put on ice. The number of protoplasts is determined by making counts on a hemacytometer and a final density of 4.5×10^6 per mL is obtained with the proper volume of electroporation buffer. For electroporation, 0.75 mL of protoplasts is added to each cuvette followed by the addition of plasmid DNA in a volume of 50 μL or less. Samples are electroporated at 125 […] and 260 volts using a Bio-Rad Gene Pulser Electroporater (Bio-Rad CA) and incubated in Murishige-Skoog medium (MS) +0.6 M mannitol in the light at 26° C. for 18-22 hours before analysis. Protoplasts are harvested by spinning down at 800-1000 rpm in a table top centrifuge and lysed by resuspending in 500 μL extraction buffer (IX phosphate buffered saline [PBS] (Roche Boehringer Mannheim #1666789, Nutley, N.J.) 0.2% BSA, 0.5% Tween 20, pH 7.4) and vortexed for five seconds. Samples are spun at 3,000 rpm for 5 min in a table top centrifuge and the supernatant is saved to a fresh tube and put on ice ready for analysis.
The total amount of DNA in each sample is equalized by using as a carrier an appropriate amount of an empty vector plasmid DNA pMON999 (P-CaMV.35S/T-AGRTU.nos). With the aroA:CP4 EPSPS gene as the reporter, the GUS activity encoded by a separate plasmid is used as an internal control to normalize the expression. Similarly, the aroA:CP4 EPSPS gene expression is used for normalization when the Ec.uidA (GUS) gene is used as the reporter.
The aroA:CP4 EPSPS expression is quantitated by ELISA. A crude protoplast extract containing lmg total protein is added to goat anti-CP4 EPSPS IgG coated wells of a 96-well microtiter plate for immunoreaction. Antibodies specific to CP4 EPSPS are produced in goats by immunization of three goats with recombinant SDS-PAGE purified CP4 EPSPS from recombinant E. coli. […]
For orientation: ELISA stands for enzyme-linked immunosorbent assay.

The subject of series [2] is CP4 EPSPS reporter gene expression. The series is described as follows: Yeast RPL32 translational repression of CP4 EPSPS reporter in corn protoplasts. It is filed as cell-based. To be noted: CP4 EPSPS reporter with RPL32 operator. Here is the method: (§1) Corn protoplasts are prepared from etiolated leaves of antiseptically grown seedlings. Six to eight grams of leaf tissue is harvested and put in the enzyme mix (1% cellulase, 0.1% macerozyme, 0.6 M mannitol, 10 mM MES (pH =5.7), 1 mM CaCl2, 1 mM MgCl2, and 0. 1% BSA) in 100×25 mm petri plates. The leaf digestion is done for 135 minutes, swirling on a shaker at 50 rpm at 26° C. under light (10-25 mico-einsteins) in a growth chamber (Percival Scientific Inc., Boone, Iowa). Protoplasts are screened through a 190 μm sterile tissue mesh into a petri plate. The protoplasts are spun down in a table top centrifuge at 800 rpm (˜200 g) for 8 minutes. The supernatant is removed carefully by pipetting. The protoplasts are resuspended in 10 mL per tube of the 0.6 M mannitol rinse. […] The number of protoplasts is determined by making counts on a hemacytometer and a final density of 4.5×10^6 per mL is obtained with the proper volume of electroporation buffer. […] Samples are spun at 3,000 rpm for 5 min in a table top centrifuge and the supernatant is saved to a fresh tube and put on ice ready for analysis.
For CP4 EPSPS ELISA assay, a 96-well Nunc-Immuno MaxiSorb plate is coated with 100 μL of purified monoclonal anti-CP4 EPSPS IgG antibody (1 ng/μL) in coating buffer (15 mM Na2CO3, 35 mM NaHCO3, pH 9.6). […] The plate is read on a Spectra Max 340 (Molecular Devices, Sunnyvail, Calif. 94089) at 450 nm. […]

The subject of series [3] is Ec.uidA reporter gene with the MS2 operator in the 5′UTR. The series is described as follows: MS2 CP translational repression of Ec.uidA (GUS) reporter, corn protoplast transient assay. Format: cell-based. The settings on record: pMON42178/pMON42176 and pMON42180/pMON42177; corn protoplasts. Here is the method:
as §1, with “analysis. […]” for “analysis.”
A fluorometry assay for GUS activity is performed as described (Jefferson, Plant Mol. Bio. Rep. 5:387-405 (1987)). GUS activity is measured with the fluorometric substrate 4-methylumbelliferryl-β-glucuronide (4-MUG) on a Fmax fluorimeter (Molecular Devices Corp., Sunnyvale, Calif.). […]

Setting [4] is: 4:1 DNA molar ratio of the coat protein gene to the reporter.
The mark [5] stands for this setting: MS2 coat protein gene co-expressed.

Protocol for GUS expression: Arabidopsis plants are transformed by the Agrobacterium infiltration method as described (Bechtold et al., Methods Mol. Biol. 82:259-66 (1992)). DNA gel blots (Southern blot analysis), RNA gel blots (northern blot analysis) and protein immunoblots (western blot analysis) are carried out using standard protocols (Sambrook et al., Molecular Cloning: A laboratory manual, 2nd ed. Cold Spring Harbor Laboratory Press, Cold Spring Harbor, N.Y., (1989)).
V1 plants positive for GUS and MS2 coat protein are identified using a GUS assay (Jefferson et al., Plant Mol. Bio. Rep. 5:387-405 (1987)) and western blot analysis, respectively. Positive plants with a low copy number are identified by Southern analysis then cross pollinated. F1 plants from the cross are then subjected to PCR analysis to identify segregants that contained both transgenes as well as siblings that contained only the uidA gene. GUS expression levels are determined by MUG assays (Jefferson et al., Plant Mol. Bio. Rep. 5:387-405, (1987)) in both groups of plants for three separate crosses (25×1, 25×12, and 14×23).

Regarding “MS2 coat protein: coat protein of the MS2 RNA bacteriophage, RNA-binding translational repressor”, in the series with GUS expression, the “GUS activity, % of the control” value stood at 6.9% and the “fold repression of GUS activity” value is reported as 14 fold. Moreover, in series [1] (setting [4]), the “expression of the aroA:CP4 EPSPS reporter gene, % of the control” value is on record as 0.4% and the “fold repression of aroA:CP4 EPSPS reporter” value was determined as 270 fold. Moreover, in series [1] (setting [5]), the “expression of the aroA:CP4 EPSPS reporter gene, % of the control” value was 14% and the “fold repression of aroA:CP4 EPSPS reporter” value is “about 7 fold”.

Consider “RPL32: yeast (Saccharomyces cerevisiae) ribosomal protein RPL32, an RNA-binding protein”, for which, in series [2], the “fold reduction of translation” value is on record as “up to 2.3 fold” and the “translation, % of the control” value was at least 43%.

B1: MS2 CP:en: plant expression enhanced version of the MS2 CP gene (SEQ ID NO:3) (nucleic acid)
DNA: ATGGCCTCCAACTTCACCCAGTTCGTGCTCGTGGACAACGGCGGCACCGGCGACGTGACCGTCGCCCCAAGCAACTTCGCCAACGGGGTCGCCGAGTGGATCAGCTCCAACTCGCGCTCCCAGGCCTACAAGGTGACCTGCAGCGTGCGCCAGTCCTCCGCGCAGAACCGCAAGTACACCATCAAGGTCGAGGTGCCGAAGGTGGCCACCCAGACCGTCGGCGGCGTGGAGCTGCCAGTGGCCGCCTGGCGCTCGTACCTCAACATGGAGCTGACCATCCCAATCTTCGCCACGAACTCCGACTGCGAGCTGATCGTGAAGGCCATGCAAGGCCTCCTGAAGGACGGCAACCCGATCCCCTCCGCCATCGCCGCCAACTCCGGCATCTACTAA
modifications: synthetic plant MS2 CP gene
Take B1: the “increase in efficiency of translational repression compared to the respective native gene construct, expressed as decrease in GUS activity” value in series [3] is 74-80%.

The values above are taken from patent US20020062499A1, “Methods for translational repression of gene expression in plants” (priority 2000, published 2002).
